Test results published in patent publication US6825182B2, “17α-fluoroalkyl-11β-benzaldoxime steroids, process for their production, pharmaceutical preparations that contain these steroids as well as their use for the production of pharmaceutical agents” (Schering AG, priority 2002, dated 2004).

Assays:
pregnancy in rats = assay: Early abortive action in rats after subcutaneous administration from the 5th to 7th day of pregnancy; type: in vivo, rat; conditions: s.c., day 5-7 of pregnancy; for Complete Inhibition of Pregnancy (empty uteri) N#/N: nonpregnant females/paired females
Text: (§1) The methods for the in-vitro tests and the in-vivo tests with the compounds according to the invention can be found in EP 0 411 733 A2 and DE 43 32 283 A1: […]

Progesterone Receptor = assay: Receptor bond: relative molar binding affinity to the progesterone receptor; conditions: Progesterone = 100%
Text: as §1

Glucocorticoid Receptor = assay: Receptor bond: relative molar binding affinity to the glucocorticoid receptor; conditions: Dexamethasone = 100%
[1] = cited from earlier work
tumor models = conditions: in vivo; cited from earlier work

Compound | Complete Inhibition of Pregnancy (empty uteri) (pregnancy in rats; 0.3 mg/animal/day) | Complete Inhibition of Pregnancy (empty uteri) N#/N (pregnancy in rats; 0.3 mg/animal/day) | Complete Inhibition of Pregnancy (empty uteri) (pregnancy in rats; 1 mg/animal/day) | Complete Inhibition of Pregnancy (empty uteri) N#/N (pregnancy in rats; 1 mg/animal/day) | Relative Molar Binding-affinity RBA (%) to the Progesterone Receptor (Progesterone Receptor) [%] | Relative Molar Binding-affinity RBA (%) to the Glucocorticoid Receptor (Glucocorticoid Receptor) [%] | also measured
4-[17β-Hydroxy-17α-(1,1,1-trifluoroethyloxymethyl)-3-oxoestra-4,9-dien-11β-yl]-benzaldehyde-(1E)-oxime [Example 6] | 100 | 4/4 | 100 | 4/4 | – | – | Complete Inhibition of Pregnancy (empty uteri) (pregnancy in rats; 0.1 mg/animal/day): 0; Complete Inhibition of Pregnancy (empty uteri) N#/N (pregnancy in rats; 0.1 mg/animal/day): 0/4
CC12CC(c3ccc(C=NO)cc3)C3=C4CCC(=O)C=C4CCC3C1CCC2(O)C(F)(F)F (stereo not drawn) [Compound No. 2, 4-[17β-Hydroxy-17α-(1,1,1-trifluoromethyl)-3-oxoestra-4,9-dien-11β-yl]benzaldehyde-1(Z)-oxime] | – | – | – | – | 123 | 113 | –
CC12CC(c3ccc(C=NO)cc3)C3=C4CCC(=O)C=C4CCC3C1CCC2(O)C(F)(F)F (stereo not drawn) [Example 1, 4-[17β-Hydroxy-17α-(trifluoromethyl)-3-oxoestra-4,9-dien-11β-yl]benzaldehyde-(1E)-oxime] | 100 | 4/4 | 100 | 4/4 | 272 | 163 | Complete Inhibition of Pregnancy (empty uteri) (pregnancy in rats; 0.03 mg/animal/day): 0; Complete Inhibition of Pregnancy (empty uteri) N#/N (pregnancy in rats; 0.03 mg/animal/day): 0/6; Complete Inhibition of Pregnancy (empty uteri) (pregnancy in rats; 0.1 mg/animal/day): 75; Complete Inhibition of Pregnancy (empty uteri) N#/N (pregnancy in rats; 0.1 mg/animal/day): 1/4
CC12CC(c3ccc(C=NO)cc3)C3=C4CCC(=O)C=C4CCC3C1CCC2(O)C(F)(F)C(F)(F)F (stereo not drawn) [Example 2, 4-[17β-Hydroxy-17α-(1,1,2,2,2-pentafluoroethyl)-3-oxoestra-4,9-dien-11β-yl]-benzaldehyde-(1E)-oxime] | – | – | 100 | 5/5 | 23 | 10 | –
CCNC(=O)ON=Cc1ccc(C2CC3(C)C(CCC3(O)C(F)(F)C(F)(F)F)C3CCC4=CC(=O)CCC4=C23)cc1 (stereo not drawn) [Example 3, 4-[17β-Hydroxy-17α-(1,1,2,2,2-pentafluoroethyl)-3-oxoestra-4,9-dien-11β-yl]-benzaldehyd-1-one-(1E)-{O-(ethylamino)carbonyl-oxime] | – | – | 100 | 4/4 | 230 | 84 | –
COC1(C(F)(F)C(F)(F)F)CCC2C3CCC4=CC(=O)CCC4=C3C(c3ccc(C=NO)cc3)CC21C (stereo not drawn) [Example 4, 4-[17β-Methoxy-17α-(1,1,2,2,2-pentafluoroethyl)-3-oxoestra-4,9-dien-11β-yl]-benzaldehyde-(1E)-oxime] | – | – | 50 | 2/4 | – | – | –
CN(C)c1ccc([C@H]2C[C@]3(C)[C@@H](CC[C@]3(O)CCCO)[C@@H]3CCC4=CC(=O)CCC4=C32)cc1 [Onapristone, reference compound] | – | – | – | – | 22 | 39 | –
CC#C[C@]1(O)CC[C@H]2[C@@H]3CCC4=CC(=O)CCC4=C3[C@@H](c3ccc(N(C)C)cc3)C[C@@]21C [RU 486, 11β-(4-Dimethylaminophenyl)-17β-hydroxy-17α-propinyl-estra-4,9-dien-3-one, reference compound] | 0 | 0/5 | 20 | 1/5 | – | – | Complete Inhibition of Pregnancy (empty uteri) (pregnancy in rats; 3 mg/animal/day): 100; Complete Inhibition of Pregnancy (empty uteri) N#/N (pregnancy in rats; 3 mg/animal/day): 5/5
CC(=O)c1ccc([C@H]2C[C@@]3(C)[C@@H](CC[C@@]3(O)C(F)(F)C(F)(F)F)[C@@H]3CCC4=CC(=O)CCC4=C32)cc1 [ZK 230 211, 11β-(4-Acetylphenyl)-17β-hydroxy-17α-(1,1,2,2,2-pentafluoroethyl)-estra-4,9-dien-3-one, reference compound] | 0 | 0/6 | 75 | 3/4 | – | – | Complete Inhibition of Pregnancy (empty uteri) (pregnancy in rats; 3 mg/animal/day): 100; Complete Inhibition of Pregnancy (empty uteri) N#/N (pregnancy in rats; 3 mg/animal/day): 4/4; Receptor selectivity (in words) [1]: high receptor selectivity; Antiproliferative activity in the tumor models (in words) (tumor models): antiproliferative activity
CCNC(=O)ON=Cc1ccc(C2CC3(C)C(CCC3(O)C(F)(F)F)C3CCC4=CC(=O)CCC4=C23)cc1 (stereo not drawn) [compound 3, 4-[17β-Hydroxy-17α-(1,1,1-trifluoromethyl)-3-oxoestra-4,9-dien-11β-yl]benzaldehyde-1(E)-[O-(ethylamino)carbonyl]oxime] | – | – | – | – | 98 | 187 | –
CC(=O)ON=Cc1ccc(C2CC3(C)C(CCC3(O)C(F)(F)C(F)(F)F)C3CCC4=CC(=O)CCC4=C23)cc1 (stereo not drawn) [compound 5, 4-[17β-Hydroxy-17α-(1,1,2,2,2-pentafluoroethyl)-3-oxoestra-4,9-dien-11β-yl]benzaldehyde-1(E)-O-acetyloxime] | – | – | – | – | 0.5 | 10 | –
